In patent US20030013140A1, “Method of detecting ligand or ligand-like low-molecular weight compound” (priority 2000, published 2003):

What was measured:
Type in all cases: cell-based
[1] = target: T1, human IL-10 receptor (BAF/hIL-10R cell line) (Homo sapiens, UniProt Q13651); assay: Cytoproliferative activity of the human IL-10-dependent cell line BAF/hIL-10R (WST-1/1-methoxy PMS, 450 nm); conditions: 2-mercaptoethanol 5×10^-5 M vs medium alone; marked differences at rhIL-10 10, 100 and 1,000 ng/mL; FIG. 6
T1 construct: expressed in transfected cells; host or cells: BAF/B03 (mouse IL-3-dependent pro-B cell line), vector pIRESpuro
T1 sequence (Q13651 22-578): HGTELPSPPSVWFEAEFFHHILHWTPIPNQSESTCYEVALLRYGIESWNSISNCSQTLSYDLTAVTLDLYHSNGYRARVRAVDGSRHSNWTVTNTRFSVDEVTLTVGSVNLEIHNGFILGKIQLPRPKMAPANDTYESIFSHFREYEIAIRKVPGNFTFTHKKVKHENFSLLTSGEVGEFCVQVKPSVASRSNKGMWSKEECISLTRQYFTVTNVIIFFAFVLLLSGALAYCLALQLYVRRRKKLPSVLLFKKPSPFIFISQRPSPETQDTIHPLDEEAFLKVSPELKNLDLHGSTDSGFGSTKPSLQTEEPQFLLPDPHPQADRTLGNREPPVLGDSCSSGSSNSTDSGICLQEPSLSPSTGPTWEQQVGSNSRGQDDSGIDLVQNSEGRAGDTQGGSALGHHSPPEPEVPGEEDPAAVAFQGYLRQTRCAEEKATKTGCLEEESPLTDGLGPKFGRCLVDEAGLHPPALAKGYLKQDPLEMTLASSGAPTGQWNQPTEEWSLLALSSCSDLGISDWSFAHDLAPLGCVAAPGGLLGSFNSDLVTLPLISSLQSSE
T1 sequence (Q61190 20-349 partner): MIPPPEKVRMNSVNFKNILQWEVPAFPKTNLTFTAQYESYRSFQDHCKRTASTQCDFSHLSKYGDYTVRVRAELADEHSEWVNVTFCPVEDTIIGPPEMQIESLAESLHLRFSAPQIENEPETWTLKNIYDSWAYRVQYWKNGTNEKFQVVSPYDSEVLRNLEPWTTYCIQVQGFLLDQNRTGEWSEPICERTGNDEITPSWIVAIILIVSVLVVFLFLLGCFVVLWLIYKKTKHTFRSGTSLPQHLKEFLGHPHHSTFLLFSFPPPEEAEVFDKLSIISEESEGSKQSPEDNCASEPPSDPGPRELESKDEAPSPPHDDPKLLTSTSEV
Procedure: Upon determining cytoproliferative activity, a cell line transfected with the human IL-10 receptor gene (BAF/hIL-10R) was recovered and, subsequent to its washing with PBS(−), was suspended in DMEM medium ((−)FCS). The cells were prepared at 5×10^4 cells/well on a 96-well plate. To the individual wells, rhIL-10 was added at 0, 0.0001, 0.001, 0.01, 0.1, 1, 10, 100 or 1,000 ng/mL, respectively, followed by incubation at 5% CO2 and 37° C. for 48 hours. Subsequent to the incubation, the WST-1/1-methoxy PMS solution (product of Dojindo Laboratories) was added (final concentration: 5 mM), and a staining reaction was then conducted in a CO2 incubator. After the reaction, measurement was conducted at a measurement wavelength of 450 nm.
(§1) With respect to the cell line (BAF/hIL-10R) obtained in Example 2 with the human IL-10 receptor gene introduced therein, effects which may be given to its screening by the existence of a reducing agent (2-mercaptoethanol) was investigated as will be described next. Firstly, two culture media were provided, one being a culture medium obtained by adding 2-mercaptoethanol at 5×10^−5 M to DMEM medium ((−)FCS) and the other consisting solely of DMEM medium ((−)FCS) without addition of the reducing agent. […]

[2] = target: T2, human G-CSF receptor (BAF/hGCSFR cell line) (Homo sapiens, UniProt Q99062); assay: Cytoproliferative activity of the human G-CSF-dependent cell line BAF/hGCSFR (WST-1/1-methoxy PMS, 450 nm)
T2 construct: expressed in transfected cells; host or cells: BAF/B03 (mouse IL-3-dependent pro-B cell line), vector pIRESpuro
T2 sequence (Q99062 25-836): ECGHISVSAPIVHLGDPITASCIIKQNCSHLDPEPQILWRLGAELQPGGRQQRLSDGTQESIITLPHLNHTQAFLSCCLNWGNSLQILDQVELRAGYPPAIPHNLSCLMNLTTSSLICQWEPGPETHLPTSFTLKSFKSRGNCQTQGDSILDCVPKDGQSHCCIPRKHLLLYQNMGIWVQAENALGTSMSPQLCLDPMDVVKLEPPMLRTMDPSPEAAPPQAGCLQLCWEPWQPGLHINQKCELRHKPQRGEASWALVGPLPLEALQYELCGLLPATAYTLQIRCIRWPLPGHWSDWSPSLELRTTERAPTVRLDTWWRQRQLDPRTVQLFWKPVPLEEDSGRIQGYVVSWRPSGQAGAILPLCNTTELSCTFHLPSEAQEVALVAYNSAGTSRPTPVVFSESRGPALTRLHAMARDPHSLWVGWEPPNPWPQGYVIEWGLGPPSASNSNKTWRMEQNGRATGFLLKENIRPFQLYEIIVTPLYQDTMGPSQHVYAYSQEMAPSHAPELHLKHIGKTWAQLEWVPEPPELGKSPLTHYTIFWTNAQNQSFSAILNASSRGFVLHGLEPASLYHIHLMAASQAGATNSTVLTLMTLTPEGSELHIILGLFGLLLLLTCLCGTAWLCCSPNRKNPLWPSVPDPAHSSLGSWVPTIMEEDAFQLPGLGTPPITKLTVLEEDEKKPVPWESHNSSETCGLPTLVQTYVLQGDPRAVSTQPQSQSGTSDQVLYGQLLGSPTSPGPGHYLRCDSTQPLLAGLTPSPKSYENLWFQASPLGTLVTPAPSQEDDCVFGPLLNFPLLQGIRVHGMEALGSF
Procedure: Upon determining cytoproliferative activity, a cell line transfected with the human G-CSF receptor gene (BAF/hGCSFR) was recovered and, subsequent to its washing with PBS(−), was suspended in DMEM medium ((−)FCS). The cells were prepared at 5×10^4 cells/well on a 96-well plate. To the individual wells, rhG-CSF was added at 0, 0.025, 0.1, 0.4, 1.6 or 6.4 ng/mL, respectively, followed by incubation at 5% CO2 and 37° C. for 48 hours. Subsequent to the incubation, a WST-1/1-methoxy PMS solution (product of Dojindo Laboratories) was added to the individual wells (final concentration: 5 mM), and a staining reaction was then conducted in a CO2 incubator. After the reaction, measurement was conducted at a measurement wavelength of 450 nm.
as §1, with “line (BAF/hGCSFR)” for “line (BAF/hIL-10R)”, “Example 1” for “Example 2”, “human G-CSF” for “human IL-10”, “without incorporation” for “without addition”, “the additives.” for “the reducing agent.”

[3] = target: T3, human EPO receptor (BAF/hEPOR cell line) (Homo sapiens, UniProt P19235); assay: Cytoproliferative activity of the human EPO-dependent cell line BAF/hEPOR (WST-1/1-methoxy PMS, 450 nm); conditions: 2-mercaptoethanol 5×10^-5 M vs medium alone; FIG. 9
T3 construct: expressed in transfected cells; host or cells: BAF/B03 (mouse IL-3-dependent pro-B cell line), vector pIRESpuro; cDNA from a human erythroid leukemia cell line
T3 sequence (P19235 25-508): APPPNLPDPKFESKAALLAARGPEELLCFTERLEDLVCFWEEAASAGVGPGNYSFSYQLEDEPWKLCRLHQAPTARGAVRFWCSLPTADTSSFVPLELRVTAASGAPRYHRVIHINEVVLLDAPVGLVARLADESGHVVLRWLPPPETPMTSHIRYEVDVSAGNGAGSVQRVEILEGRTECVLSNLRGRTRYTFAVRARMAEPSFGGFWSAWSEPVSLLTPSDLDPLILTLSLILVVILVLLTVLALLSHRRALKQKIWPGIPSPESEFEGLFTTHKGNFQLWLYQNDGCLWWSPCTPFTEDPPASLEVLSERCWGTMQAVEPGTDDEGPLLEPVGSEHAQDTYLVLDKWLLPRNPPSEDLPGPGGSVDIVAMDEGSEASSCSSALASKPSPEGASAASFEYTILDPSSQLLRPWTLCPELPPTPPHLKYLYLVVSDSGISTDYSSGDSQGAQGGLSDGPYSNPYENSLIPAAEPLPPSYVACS
Procedure: Upon determining cytoproliferative activity, a cell line transfected with the human EPO receptor gene (BAF/hEPOR) was recovered and, subsequent to its washing with PBS(−), was suspended in DMEM medium ((−)FCS). The cells were prepared at 5×10^4 cells/well on a 96-well plate. […] Subsequent to the incubation, a WST-1/1-methoxy PMS solution (product of Dojindo Laboratories) was added to the individual wells (final concentration: 5 mM), and a staining reaction was then conducted in a CO2 incubator. After the reaction, measurement was conducted at a measurement wavelength of 450 nm.
With respect to the cell line (BAF/hEPOR) obtained in Example 8 with the human EPO receptor gene introduced therein, effects which may be given to its screening by the existence of a reducing agent (2-mercaptoethanol) was investigated as will be described next. Firstly, two culture media were provided, one being a culture medium obtained by adding 2-mercaptoethanol at 5×10^−5 M to DMEM medium ((−)FCS) and the other consisting solely of DMEM medium ((−)FCS) without addition of the reducing agent. Those culture media were poured into individual wells of 96-well plates, respectively, and BAF/hEPOR which had been washed with PBS(−) was suspended at 5×10^4 cells/well. […]

effect of reducing agent on cytoproliferation of BAF/hIL-10R in the presence of rhIL-10 [1]	effect of reducing agent on cytoproliferation of BAF/hG-CSFR in the presence of rhG-CSF ([2]; 2-mercaptoethanol 5×10^-5 M vs medium alone, marked differences at rhG-CSF 0.1, 0.4, 1.6 and 6.4 ng/mL, FIG. 3)	effect of reducing agent on cytoproliferation of BAF/hEPOR in the presence of rhEPO [3]	cytoproliferation of BAF/hG-CSFR in the presence of SB247464 on addition of WEHI sup to the culture medium ([2]; WEHIsup 1.25% with 2-mercaptoethanol 5×10^-5 M vs medium alone, SB247464 0 to 10^-6 M, marked differences at 10^-8, 10^-9 and 10^-10, FIG. 5)	SMILES
enhanced	enhanced	enhanced	–	OCCS [2-mepcaptoethanol, 2-mercaptoethanol]
–	–	–	enhanced	c1ccc(C23N=C(Nc4nc5ccccc5[nH]4)NC2(c2ccccn2)NC(Nc2nc4ccccc4[nH]2)=N3)nc1 (stereo not shown) [SB247464, reference compound]
